*1 amine or outer side, *2 acyl side, *3 side chain or, on linkers, in order; H or OH if unused. Where a SMILES comes first, the peptide text is derived from it. [ ]: non-standard residue; d: D form. The star is where a group is joined. MeO(CH2CH2O)23CH2CH2CO = COCCOCCOCCOCCOCCOCCOCCOCCOCCOCCOCCOCCOCCOCCOCCOCCOCCOCCOCCOCCOCCOCCOCCOCCC(=O)*; X1 = O=C(Cn1cnc2ccc(N3CCN([*:1])CC3)cc2c1=O)[*:2]; Arachidoyl = CCCCCCCCCCCCCCCCCCCC(=O)*; NMeR = CN[C@@H](CCCNC(=N)N)C(=O)O; Cit = NC(=O)NCCC[C@H](N)C(=O)O; Guanidino = N=C(N)N*
What was measured:
Format in all cases: cell-based
Y1R = biological target: T1, Y1R (Homo sapiens, UniProt P25929); assay: CaFlux Assay (FLIPR), Y1R
T1 sequence (P25929 1-384): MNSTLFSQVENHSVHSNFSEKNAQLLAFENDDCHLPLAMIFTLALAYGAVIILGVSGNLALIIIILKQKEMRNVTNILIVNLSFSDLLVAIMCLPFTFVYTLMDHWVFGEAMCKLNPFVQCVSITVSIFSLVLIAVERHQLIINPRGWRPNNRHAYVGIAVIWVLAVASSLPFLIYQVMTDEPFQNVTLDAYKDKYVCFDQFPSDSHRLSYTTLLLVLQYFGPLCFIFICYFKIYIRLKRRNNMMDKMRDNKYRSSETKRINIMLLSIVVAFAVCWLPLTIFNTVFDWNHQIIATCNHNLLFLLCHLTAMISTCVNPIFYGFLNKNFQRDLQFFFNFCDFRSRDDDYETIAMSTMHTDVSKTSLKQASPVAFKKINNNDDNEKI

Y4R = Y4R (Homo sapiens, UniProt P50391); assay: CaFlux Assay (FLIPR), Y4R
Sequence of Y4R (P50391 whole entry): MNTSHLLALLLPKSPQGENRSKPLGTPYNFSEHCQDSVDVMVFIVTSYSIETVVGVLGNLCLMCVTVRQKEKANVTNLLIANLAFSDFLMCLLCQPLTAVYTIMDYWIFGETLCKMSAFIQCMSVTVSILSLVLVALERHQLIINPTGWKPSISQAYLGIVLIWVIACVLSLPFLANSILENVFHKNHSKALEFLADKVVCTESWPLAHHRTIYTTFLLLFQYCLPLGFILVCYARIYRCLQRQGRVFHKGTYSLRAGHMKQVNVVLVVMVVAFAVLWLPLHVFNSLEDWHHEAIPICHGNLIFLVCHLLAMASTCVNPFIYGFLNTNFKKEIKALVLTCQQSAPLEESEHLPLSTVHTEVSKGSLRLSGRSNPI

Y5R = biological target: T2, Y5R (Homo sapiens, UniProt Q15761); assay: CaFlux Assay (FLIPR), Y5R
T2 sequence (Q15761 1-445): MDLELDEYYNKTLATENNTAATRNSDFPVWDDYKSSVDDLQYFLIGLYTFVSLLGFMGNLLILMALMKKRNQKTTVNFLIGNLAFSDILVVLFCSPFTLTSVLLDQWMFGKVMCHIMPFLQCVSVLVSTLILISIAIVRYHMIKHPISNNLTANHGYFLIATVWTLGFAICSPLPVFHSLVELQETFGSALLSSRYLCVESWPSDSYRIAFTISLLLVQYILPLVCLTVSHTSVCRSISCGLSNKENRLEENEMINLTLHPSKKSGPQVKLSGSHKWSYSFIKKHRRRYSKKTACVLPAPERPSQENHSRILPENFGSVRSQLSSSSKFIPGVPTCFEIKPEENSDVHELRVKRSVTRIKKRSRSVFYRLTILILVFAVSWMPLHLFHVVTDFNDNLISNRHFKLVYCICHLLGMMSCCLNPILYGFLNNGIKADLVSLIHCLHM

hNPY2R [1] = biological target: T3, hNPY2R (Homo sapiens, UniProt P49146); assay: cAMP Agonist Assay, HEK293/hNPY2R; set-up: expressed in transfected cells; host or cells: HEK293/hNPY2R (G418 selection)
T3 sequence (P49146 1-381): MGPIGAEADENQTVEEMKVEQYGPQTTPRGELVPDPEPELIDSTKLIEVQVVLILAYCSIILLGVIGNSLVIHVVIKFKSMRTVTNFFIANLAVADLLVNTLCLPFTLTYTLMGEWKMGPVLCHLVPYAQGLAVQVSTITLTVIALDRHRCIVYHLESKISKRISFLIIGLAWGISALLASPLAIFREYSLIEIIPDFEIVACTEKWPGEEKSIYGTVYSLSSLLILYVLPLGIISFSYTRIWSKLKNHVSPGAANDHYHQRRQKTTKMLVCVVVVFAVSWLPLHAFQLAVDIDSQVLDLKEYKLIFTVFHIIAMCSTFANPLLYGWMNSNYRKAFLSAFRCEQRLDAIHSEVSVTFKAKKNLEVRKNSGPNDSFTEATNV
Summary of the method: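 HEK293/hNPY2R cells (10,000/well, overnight) stimulated 30 min at room temperature with compound plus 5 μM forskolin and 0.5 mM IBMX (1.1% DMSO final). Lysate cAMP measured by competitive chemiluminescent ELISA (AP conjugate, CSPD substrate); quadruplicates.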

hNPY2R [2] = biological target: T3, hNPY2R; assay: CaFlux Assay (FLIPR), Y2R; set-up: expressed in transfected cells; host or cells: HEK-293 stably transfected with G protein chimera Gαqi9
Summary of the method: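 Intracellular calcium mobilisation was measured in HEK-293 cells engineered with Gαqi9 and the relevant receptor; responses were normalised as % of maximal positive-control signal.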

Structure (SMILES): CCCCCCCCCCCCCCCC(=O)NCCCCCC(=O)N[C@H](C(=O)N[C@@H](CCCCNC(=O)CCOCCOCCOCCOCCOCCOCCOCCOC)C(=O)N1CCN(c2ccc3ncn(CC(=O)N[C@@H](CCCNC(N)=O)C(=O)N[C@@H](Cc4c[nH]cn4)C(=O)N[C@@H](Cc4ccc(O)cc4)C(=O)N[C@@H](CC(C)C)C(=O)N[C@@H](CC(N)=O)C(=O)N[C@@H](Cc4c[nH]c5ccccc45)C(=O)N[C@H](C(=O)N[C@H](C(=O)N[C@@H](CCCNC(=N)N)C(=O)N[C@@H](CCC(N)=O)C(=O)N(C)[C@@H](CCCNC(=N)N)C(=O)N[C@@H](Cc4ccc(O)cc4)C(N)=O)[C@@H](C)O)C(C)C)c(=O)c3c2)CC1)[C@@H](C)CC [Example 30]
- EC50 (Y1R): > 6000 nM
- EC50 (Y4R): > 6000 nM
- EC50 (Y5R): 5690 nM
- EC50 (hNPY2R [1]): 0.47 nM
- EC50 (hNPY2R [2]): 0.143 nM

Structure (SMILES): CCCCCCCCCCCCCCCC(=O)NCCCCCC(=O)NCCOCCOCCOCCOCCOCCOCCOCCOCCOCCOCCOCCOCCOCCOCCOCCOCCOCCOCCOCCOCCOCCOCCOCCOCCC(=O)N[C@H](C(=O)N[C@@H](CCCCN)C(=O)N1CCN(c2ccc3ncn(CC(=O)N[C@@H](CCCNC(=N)N)C(=O)N[C@@H](Cc4c[nH]cn4)C(=O)N[C@@H](Cc4ccc(O)cc4)C(=O)N[C@@H](CC(C)C)C(=O)N[C@@H](CC(N)=O)C(=O)N[C@@H](Cc4c[nH]c5ccccc45)C(=O)N[C@H](C(=O)N[C@H](C(=O)N[C@@H](CCCNC(=N)N)C(=O)N[C@@H](CCC(N)=O)C(=O)N(C)[C@@H](CCCNC(=N)N)C(=O)N[C@@H](Cc4ccc(O)cc4)C(N)=O)[C@@H](C)O)C(C)C)c(=O)c3c2)CC1)[C@@H](C)CC [Example 38]
- EC50 (Y1R): > 6000 nM
- EC50 (Y4R): > 6000 nM
- EC50 (Y5R): 1380 nM
- EC50 (hNPY2R [1]): 0.07 nM
- EC50 (hNPY2R [2]): 0.1 nM

Structure (SMILES): CCCCCCCCCCCC(=O)NCCCCCC(=O)N[C@H](C(=O)N[C@@H](CCCCNC(=O)CCOCCOCCOCCOCCOCCOCCOCCOCCOCCOCCOCCOCCOCCOCCOCCOCCOCCOCCOCCOCCOCCOCCOCCOC)C(=O)N1CCN(c2ccc3ncn(CC(=O)N[C@@H](CCCNC(N)=O)C(=O)N[C@@H](Cc4c[nH]cn4)C(=O)N[C@@H](Cc4ccc(O)cc4)C(=O)N[C@@H](CC(C)C)C(=O)N[C@@H](CC(N)=O)C(=O)N[C@@H](Cc4c[nH]c5ccccc45)C(=O)N[C@H](C(=O)N[C@H](C(=O)N[C@@H](CCCNC(=N)N)C(=O)N[C@@H](CCC(N)=O)C(=O)N(C)[C@@H](CCCNC(=N)N)C(=O)N[C@@H](Cc4ccc(O)cc4)C(N)=O)[C@@H](C)O)C(C)C)c(=O)c3c2)CC1)[C@@H](C)CC [Example 36]
- EC50 (Y1R): > 6000 nM
- EC50 (Y4R): > 6000 nM
- EC50 (Y5R): > 6000 nM
- EC50 (hNPY2R [1]): 12.7 nM
- EC50 (hNPY2R [2]): 0.388 nM

Structure (SMILES): CCCCCCCCCCCCCCCC(=O)NCCCCCC(=O)NCCCC[C@H](NC(=O)[C@@H](NC(=O)CCOCCOCCOCCOCCOCCOCCOCCOCCOCCOCCOCCOC)[C@@H](C)CC)C(=O)N1CCN(c2ccc3ncn(CC(=O)N[C@@H](CCCNC(=N)N)C(=O)N[C@@H](Cc4c[nH]cn4)C(=O)N[C@@H](Cc4ccc(O)cc4)C(=O)N[C@@H](CC(C)C)C(=O)N[C@@H](CC(N)=O)C(=O)N[C@@H](Cc4c[nH]c5ccccc45)C(=O)N[C@H](C(=O)N[C@H](C(=O)N[C@@H](CCCNC(=N)N)C(=O)N[C@@H](CCC(N)=O)C(=O)N(C)[C@@H](CCCNC(=N)N)C(=O)N[C@@H](Cc4ccc(O)cc4)C(N)=O)[C@@H](C)O)C(C)C)c(=O)c3c2)CC1 [Example 9]
- EC50 (Y1R): > 5000 nM
- EC50 (Y4R): > 5000 nM
- EC50 (Y5R): 1030 nM
- EC50 (hNPY2R [1]): 0.08 nM
- EC50 (hNPY2R [2]): 0.025 nM

Structure (SMILES): CCCCCCCCCCCCCCCCCCCC(=O)N[C@@H](CCC(=O)N[C@@H](CCC(=O)N[C@H](C(=O)N[C@@H](CCCCNC(=O)CCOCCOCCOCCOCCOCCOCCOCCOCCOCCOCCOCCOCCOCCOCCOCCOCCOCCOCCOCCOCCOCCOCCOCCOC)C(=O)N1CCN(c2ccc3ncn(CC(=O)N[C@@H](CCCNC(=N)N)C(=O)N[C@@H](Cc4c[nH]cn4)C(=O)N[C@@H](Cc4ccc(O)cc4)C(=O)N[C@@H](CC(C)C)C(=O)N[C@@H](CC(N)=O)C(=O)N[C@@H](Cc4c[nH]c5ccccc45)C(=O)N[C@H](C(=O)N[C@H](C(=O)N[C@@H](CCCNC(=N)N)C(=O)N[C@@H](CCC(N)=O)C(=O)N(C)[C@@H](CCCNC(=N)N)C(=O)N[C@@H](Cc4ccc(O)cc4)C(N)=O)[C@@H](C)O)C(C)C)c(=O)c3c2)CC1)[C@@H](C)CC)C(=O)O)C(=O)O [Example 60]
- EC50 (Y1R): > 9000 nM
- EC50 (Y4R): > 9000 nM
- EC50 (Y5R): 2600 nM
- EC50 (hNPY2R [1]): 0.29 nM
- EC50 (hNPY2R [2]): 0.18 nM

Structure (SMILES): CCCCCCCCCCCCCCCC(=O)NCCCCCC(=O)N[C@H](C(=O)N[C@@H](CCCCNC(=O)CCOCCOCCOCCOCCOCCOCCOCCOCCOCCOCCOCCOCCOCCOCCOCCOCCOCCOCCOCCOCCOCCOCCOCCOC)C(=O)N1CCN(c2ccc3ncn(CC(=O)N[C@@H](CCCNC(=N)N)C(=O)N[C@@H](Cc4c[nH]cn4)C(=O)N[C@@H](Cc4ccc(O)cc4)C(=O)N[C@@H](CC(C)C)C(=O)N[C@@H](CC(N)=O)C(=O)N[C@@H](Cc4c[nH]c5ccccc45)C(=O)N[C@H](C(=O)N[C@H](C(=O)N[C@@H](CCCNC(=N)N)C(=O)N[C@@H](CCC(N)=O)C(=O)N(C)[C@@H](CCCNC(=N)N)C(=O)N[C@@H](Cc4ccc(O)cc4)C(N)=O)[C@@H](C)O)C(C)C)c(=O)c3c2)CC1)[C@@H](C)CC [Example 34]
- EC50 (Y1R): > 5000 nM
- EC50 (Y4R): > 5000 nM
- EC50 (Y5R): 988 nM
- EC50 (hNPY2R [1]): 0.18 nM
- EC50 (hNPY2R [2]): 0.068 nM

Structure (SMILES): CCCCCCCCCCCCCCCCCCCC(=O)N[C@@H](CCC(=O)N[C@@H](CCC(=O)N[C@H](C(=O)N[C@@H](CCCCNC(=O)CCOCCOCCOCCOCCOCCOCCOCCOCCOCCOCCOCCOCCOCCOCCOCCOCCOCCOCCOCCOCCOCCOCCOCCOC)C(=O)N1CCN(c2ccc3ncn(CC(=O)N[C@@H](CCCNC(N)=O)C(=O)N[C@@H](Cc4c[nH]cn4)C(=O)N[C@@H](Cc4ccc(O)cc4)C(=O)N[C@@H](CC(C)C)C(=O)N[C@@H](CC(N)=O)C(=O)N[C@@H](Cc4c[nH]c5ccccc45)C(=O)N[C@H](C(=O)N[C@H](C(=O)N[C@@H](CCCNC(=N)N)C(=O)N[C@@H](CCC(N)=O)C(=O)N(C)[C@@H](CCCNC(=N)N)C(=O)N[C@@H](Cc4ccc(O)cc4)C(N)=O)[C@@H](C)O)C(C)C)c(=O)c3c2)CC1)[C@@H](C)CC)C(=O)O)C(=O)O [Example 61]
- EC50 (Y1R): > 6000 nM
- EC50 (Y4R): > 6000 nM
- EC50 (Y5R): > 6000 nM
- EC50 (hNPY2R [1]): 0.28 nM
- EC50 (hNPY2R [2]): 0.243 nM

Structure (SMILES): CCCCCCCCCCCCCCCCCCCC(=O)N[C@@H](CCC(=O)O)C(=O)N[C@@H](CCC(=O)O)C(=O)N[C@H](C(=O)N[C@@H](CCCCNC(=O)CCOCCOCCOCCOCCOCCOCCOCCOCCOCCOCCOCCOCCOCCOCCOCCOCCOCCOCCOCCOCCOCCOCCOCCOC)C(=O)N1CCN(c2ccc3ncn(CC(=O)N[C@@H](CCCNC(N)=O)C(=O)N[C@@H](Cc4c[nH]cn4)C(=O)N[C@@H](Cc4ccc(O)cc4)C(=O)N[C@@H](CC(C)C)C(=O)N[C@@H](CC(N)=O)C(=O)N[C@@H](Cc4c[nH]c5ccccc45)C(=O)N[C@H](C(=O)N[C@H](C(=O)N[C@@H](CCC(=O)NC(=N)N)C(=O)N[C@@H](CCC(N)=O)C(=O)N(C)[C@@H](CCCNC(=N)N)C(=O)N[C@@H](Cc4ccc(O)cc4)C(N)=O)[C@@H](C)O)C(C)C)c(=O)c3c2)CC1)[C@@H](C)CC [Example 51] (Arachidoyl-EEIK(MeO(CH2CH2O)23CH2CH2CO)[X1][Cit]HYLNWVTE(Guanidino)Q[NMeR]Y-NH2)
- EC50 (Y1R): > 6000 nM
- EC50 (Y4R): > 6000 nM
- EC50 (Y5R): > 6000 nM
- EC50 (hNPY2R [1]): 5.5 nM
- EC50 (hNPY2R [2]): 9.4 nM

From patent US20110172147A1, “NEUROPEPTIDE-2 RECEPTOR (Y-2R) AGONISTS” (priority 2009, published 2011)
